According to paper PMC7251097, “Aspartate/asparagine-β-hydroxylase: a high-throughput mass spectrometric assay for discovery of small molecule inhibitors” (Scientific Reports, 2020):
Structures can show the parent of a compound that is named as a salt. Where two headings read alike, the source gives them in different places.

Biological target: T1, His6-AspH315–758 (human aspartate/asparagine-β-hydroxylase, AspH) (Homo sapiens, UniProt Q12797)
T1 construct: N-Terminally His6-tagged human AspH315–758 (His6-AspH315–758) was produced in E. coli BL21 (DE3) cells; made in house; host or cells: E. coli BL21 (DE3), pET-28a(+) vector
T1 sequence (Q12797 315-758): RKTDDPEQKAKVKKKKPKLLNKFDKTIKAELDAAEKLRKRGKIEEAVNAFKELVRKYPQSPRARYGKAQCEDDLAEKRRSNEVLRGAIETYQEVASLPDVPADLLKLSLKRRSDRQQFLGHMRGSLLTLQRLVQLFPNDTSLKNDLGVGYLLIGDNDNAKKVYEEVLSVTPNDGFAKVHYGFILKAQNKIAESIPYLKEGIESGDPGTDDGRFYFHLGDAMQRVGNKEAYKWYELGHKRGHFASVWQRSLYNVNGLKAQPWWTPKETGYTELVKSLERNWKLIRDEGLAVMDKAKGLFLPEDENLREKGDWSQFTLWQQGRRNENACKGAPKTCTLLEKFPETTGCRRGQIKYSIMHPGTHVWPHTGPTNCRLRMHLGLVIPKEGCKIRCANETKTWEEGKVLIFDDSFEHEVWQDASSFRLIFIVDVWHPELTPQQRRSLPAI
Assay: SPE-MS AspH inhibition assay (LOPAC screen at fixed 20 μM and IC50 dose-response), hydroxylation of cyclic peptide hFX-CP101–119
Format: biochemical

[1] = LOPAC compound at fixed 20 uM, plate 1, normalised to DMSO and 2,4-PDCA controls
[2] = LOPAC compound at fixed 20 uM, substrate conversion, plate 1
[3] = LOPAC compound at 20uM, plate 2, conversion of substrate peptide
[4] = LOPAC Plate 4, compound at 20 uM, substrate conversion
[5] = LOPAC compound at 20uM, plate 2, normalised to DMSO and 2,4-PDCA controls
[6] = LOPAC Plate 4, compound at 20 uM

In the case of `C[C@H]1C[C@H]2[C@@H]3CCC4=CC(=O)C=C[C@]4(C)[C@@]3(Cl)[C@@H](O)C[C@]2(C)[C@@]1(O)C(=O)CO` [Beclomethasone], the “Plate 1 (% inhibition)” value [1] is reported as -10.42% and the “Plate 1 (% conversion)” value [2] is reported as 39.37%.

`c1ccc2cc(-c3ncc[nH]3)ccc2c1` [Benazoline oxalate] was tested, and the “Plate 1 (% inhibition)” value [1] was 77.21% and the “Plate 1 (% conversion)” value [2] was 9.94%.

With `Cl.Cn1c(CCCC(=O)O)nc2cc(N(CCCl)CCCl)ccc21` [Bendamustine hydrochloride] the “Plate 2 (% conversion)” value was 39.38% and the “Plate 2 (% inhibition)” value (20 µM) was -10.22%.

For `COc1cccc(OC)c1OCCNCC1CSc2ccccc2O1` (stereo not drawn) [Benoxathian hydrochloride], the “Plate 1 (% inhibition)” value [1] was -17.92% and the “Plate 1 (% conversion)” value [2] was 41.89%.

With `NC(=O)c1ccccc1` [Benzamide] the “Plate 1 (% inhibition)” value [1] was -4.66% and the “Plate 1 (% conversion)” value [2] was 37.44%.

For `N=C(N)c1ccccc1` [Benzamidine hydrochloride], the “Plate 1 (% inhibition)” value [1] was -1.42% and the “Plate 1 (% conversion)” value [2] was 36.35%.

For `NC(=NCc1ccccc1)NC(=O)c1nc(Cl)c(N)nc1N` [Benzamil hydrochloride], the “Plate 1 (% inhibition)” value [1] was 8.35% and the “Plate 1 (% conversion)” value [2] was 33.07%.

For `CN1[C@@H]2CC[C@H]1C[C@@H](OC(c1ccccc1)c1ccccc1)C2` [Benztropine mesylate], the “Plate 1 (% inhibition)” value [1] was -9.74% and the “Plate 1 (% conversion)” value [2] was 39.14%.

With `CC(C)COCC(CN(Cc1ccccc1)c1ccccc1)N1CCCC1` (stereo not drawn) [Bepridil hydrochloride] the “Plate 1 (% inhibition)” value [1] was 94.47% and the “Plate 1 (% conversion)” value [2] was 4.14%.

In the case of `CC(C)C[C@H](NC(=O)[C@@H](O)[C@H](N)Cc1ccccc1)C(=O)O` [Bestatin hydrochloride], the “Plate 1 (% inhibition)” value [1] is reported as -4.72% and the “Plate 1 (% conversion)” value [2] is reported as 37.46%.

In the case of `C[N+](C)(C)CC=O` [Betaine aldehyde chloride], the “Plate 1 (% inhibition)” value [1] is reported as -3.10% and the “Plate 1 (% conversion)” value [2] is reported as 36.91%.

With `C[N+](C)(C)CC(=O)O` [Betaine hydrochloride] the “Plate 1 (% inhibition)” value [1] was -4.44% and the “Plate 1 (% conversion)” value [2] was 37.36%.

`C[C@H]1C[C@H]2[C@@H]3CCC4=CC(=O)C=C[C@]4(C)[C@@]3(F)[C@@H](O)C[C@]2(C)[C@@]1(O)C(=O)CO` [Betamethasone] was tested, and the “Plate 1 (% inhibition)” value [1] was -5.12% and the “Plate 1 (% conversion)” value [2] was 37.59%.

`CC(C)NCC(O)COc1ccc(CCOCC2CC2)cc1` (stereo not drawn) [Betaxolol hydrochloride] was tested, and the “Plate 1 (% inhibition)” value [1] was -3.28% and the “Plate 1 (% conversion)” value [2] was 36.97%.

With `CC(C[N+](C)(C)C)OC(N)=O` (stereo not drawn) [Bethanechol chloride] the “Plate 1 (% inhibition)” value [1] was -8.85% and the “Plate 1 (% conversion)” value [2] was 38.85%.

With `C=C(c1ccc(C(=O)O)cc1)c1cc2c(cc1C)C(C)(C)CCC2(C)C` [Bexarotene] the “Plate 2 (% conversion)” value [3] was 33.95% and the inhibition at 20 µM (LOPAC compound at 20uM, plate 2, normalised to DMSO and 2,4-PDCA controls, read-out: Plate 2 (% inhibition)) was 6%.

For `CC(O)(CS(=O)(=O)c1ccc(F)cc1)C(=O)Nc1ccc(C#N)c(C(F)(F)F)c1` (stereo not drawn) [Bicalutamide (CDX)], the “% conversion” value [4] was 24.70%.

For `OC(CCN1CCCCC1)(c1ccccc1)C1CC2C=CC1C2` (stereo not drawn) [Biperiden hydrochloride], the “Plate 1 (% inhibition)” value [1] was -10.34% and the “Plate 1 (% conversion)” value [2] was 39.34%.

`O=C(/C=C/c1ccc(O)cc1)CC(=O)/C=C/c1ccc(O)cc1` [Bisdemethoxycurcumin, reference compound] showed an inhibition at 20 µM (AspH activity, fixed compound concentration 20 μM, initial LOPAC screen, 0.5%v/v DMSO, read-out: Inhibition at 20 µM [%]) of 99.7%.

`COc1cc(Nc2c(C#N)cnc3cc(OCCCN4CCN(C)CC4)c(OC)cc23)c(Cl)cc1Cl` [Bosutinib] was tested, and the “Plate 1 (% inhibition)” value [1] was -79.17%, the “Plate 1 (% conversion)” value [2] was 62.46% and the “Plate 5 (% inhibition)” value (plate 5 (Pfitzer), test compounds at fixed 20 μM) was -77.35%. The “Plate 5 (% conversion)” value (plate 5 (Pfitzer), test compounds at fixed 20 μM, mean conversion DMSO 32.88) was 62.64%.

With `Cc1c(-c2ccc(-c3ccccc3F)cc2)nc2ccc(F)cc2c1C(=O)[O-].[Na+]` [Brequinar sodium salt hydrate] the “Plate 1 (% inhibition)” value [1] was 11.82% and the “Plate 1 (% conversion)” value [2] was 31.90%.

For `CCN[C@H]1CN(CCCOC)S(=O)(=O)c2sc(S(N)(=O)=O)cc21` [Brinzolamide], the “% conversion” value [4] was 38.63% and the inhibition at 20 µM (LOPAC Plate 4, compound at 20 uM, read-out: % inhibition) was -6.32%.

For `C=CCc1ccccc1OCC(O)CNC1(C)CCC(C(C)(C)NC(=O)CBr)CC1` (stereo not drawn) [Bromoacetyl alprenolol menthane], the “Plate 1 (% conversion)” value was 65.73% and the “Plate 1 (% inhibition)” value was -88.92%.

For `C[N+](C)(C)CCOC(=O)CBr.[Br-]` [Bromoacetylcholine bromide], the “Plate 1 (% conversion)” value was 36.25% and the “Plate 1 (% inhibition)” value was -1.12%.

With `CCCC1O[C@@H]2C[C@H]3[C@@H]4CCC5=CC(=O)C=C[C@]5(C)[C@H]4[C@@H](O)C[C@]3(C)[C@]2(C(=O)CO)O1` (stereo partly drawn) [Budesonide] the “Plate 1 (% inhibition)” value [1] was -13.14% and the “Plate 1 (% conversion)” value [2] was 40.29%.

For `CCCCNc1cc(C(=O)O)cc(S(N)(=O)=O)c1Oc1ccccc1` [Bumetanide], the “Plate 1 (% inhibition)” value [1] was 3.08% and the “Plate 1 (% conversion)” value [2] was 34.84%.

With `CC(NC(C)(C)C)C(=O)c1cccc(Cl)c1` (stereo not drawn) [Bupropion hydrochloride] the “Plate 1 (% conversion)” value was 38.01% and the “Plate 1 (% inhibition)” value was -6.38%.

For `O=C1CC2(CCCC2)CC(=O)N1CCCCN1CCN(c2ncccn2)CC1` [Buspirone hydrochloride], the “Plate 1 (% conversion)” value was 40.40% and the “Plate 1 (% inhibition)” value [1] was -13.49%.

In the case of `NC(=O)c1cc(N2CC2)c([N+](=O)[O-])cc1[N+](=O)[O-]` [CB 1954], the “Plate 1 (% inhibition)” value [1] is reported as 4.86% and the “Plate 1 (% conversion)” value [2] is reported as 34.24%.

With `Clc1nccc2c1ccc1ccccc12` [CBIQ] the “Plate 1 (% inhibition)” value [1] was -13.62% and the “Plate 1 (% conversion)” value [2] was 40.45%.

For `CS(=O)(=O)O.Cn1cc(C(F)(F)F)nc1-c1ccc(OCC(O)CNCCOc2ccc(O)c(C(N)=O)c2)cc1` (stereo not drawn) [CGP 20712A methanesulfonate], the “Plate 2 (% conversion)” value [3] was 36.56% and the “Plate 2 (% inhibition)” value [5] was -1.81%.

With `CC(C)(CO)Cc1cc(C(C)(C)C)c(O)c(C(C)(C)C)c1` [CGP-7930] the “Plate 1 (% inhibition)” value [1] was -11.33% and the “Plate 1 (% conversion)” value [2] was 39.68%.

In the case of `CC(C)(C=O)Cc1cc(C(C)(C)C)c(O)c(C(C)(C)C)c1` [CGP-13501], the “Plate 1 (% inhibition)” value [1] is reported as 0.58% and the “Plate 1 (% conversion)” value [2] is reported as 35.68%.

`CCn1cnc2c(Nc3cccc(Cl)c3)nc(N[C@@H]3CCCC[C@@H]3N)nc21.Cl` [CGP-74514A hydrochloride] was tested, and the “Plate 1 (% conversion)” value was 10.02% and the “Plate 1 (% inhibition)” value was 76.98%.

For `COc1ccc(OCC2c3cc(OC)c(OC)cc3CCN2C(=O)c2cccc(Cl)c2)cc1` (stereo not drawn) [CIQ], the “% conversion” value [4] was 36.09%.

`N#Cc1cc2nc([O-])c([O-])nc2cc1[N+](=O)[O-].[Na+].[Na+]` [CNQX disodium] was tested, and the “Plate 2 (% conversion)” value [3] was 39.74% and the “Plate 2 (% inhibition)” value [5] was -11.30%.

`CCc1cccc(N(C)C(N)=Nc2cccc3ccccc23)c1` [CNS-1102] was tested, and the “Plate 1 (% inhibition)” value [1] was -9.21% and the “Plate 1 (% conversion)” value [2] was 38.96%.

For `COc1ccc(/C=C/c2nc(NCCCN(C)C)c3ccccc3n2)cc1.Cl.Cl.O` [CP-31398 dihydrochloride hydrate], the “% conversion” value [4] was 42.00%.

For `COc1ccc(/C=C/c2nc(NCCCN(C)C)c3ccccc3n2)cc1` [CP-31398], the “Plate 5 (% conversion)” value was 45.27% and the “Plate 5 (% inhibition)” value was -26.30%.

In the case of `CN[C@@H]1CC[C@@H](c2ccc(Br)cc2)c2ccccc21.Cl` [CP-53631], the “Plate 5 (% conversion)” value is reported as 37.76% and the “Plate 5 (% inhibition)” value is reported as -4.23%.

`CC[C@H]1OC(=O)[C@H](C)[C@@H](O[C@H]2C[C@@](C)(OC)[C@@H](O)[C@H](C)O2)[C@H](C)[C@@H](O[C@@H]2O[C@H](C)C[C@H](NC)[C@H]2O)[C@](C)(O)C[C@@H](C)CN(C)[C@H](C)[C@@H](O)[C@]1(C)O` [CP-64434] was tested, and the “Plate 5 (% conversion)” value was 37.11% and the “Plate 5 (% inhibition)” value was -2.34%.

In the case of `Nc1nc2ccc(Cl)cc2n2c(-c3ccccc3)nnc12` [CP-66713], the “Plate 3 (% conversion)” value is reported as 39.27%, the “Plate 5 (% conversion)” value is reported as 29.84% and the “Plate 5 (% inhibition)” value is reported as 19.04%.

For `CN(C)C(=O)[C@H](O)[C@H](Cc1ccccc1)NC(=O)c1cc2cc(Cl)ccc2[nH]1` [CP-91149], the “Plate 2 (% conversion)” value was 37.12%, the “Plate 5 (% conversion)” value was 35.66% and the “Plate 5 (% inhibition)” value was 1.91%. The “Plate 2 (% inhibition)” value (20 µM) was -3.47%.

In the case of `Cl.Cl.O=c1ccc2[nH]cc(C3=CCNCC3)c2[nH]1` [CP-93129 dihydrochloride hydrate], the “% conversion” value is reported as 37.25% and the “% inhibition” value [6] is reported as -2.28%.

`O=c1ccc2[nH]cc(C3=CCNCC3)c2[nH]1` [CP-93129] was tested, and the “Plate 5 (% conversion)” value was 38.32% and the “Plate 5 (% inhibition)” value was -5.90%.

`COc1ccccc1CN[C@@H]1CCCN[C@@H]1c1ccccc1.Cl.Cl.O` [CP-100263 dihydrochloride hydrate] was tested, and the “% inhibition” value [6] was -15.48% and the “% conversion” value [4] was 41.75%.

With `COc1ccccc1CN[C@H]1CCCN[C@H]1c1ccccc1` [CP-100263] the “Plate 5 (% conversion)” value was 33.08% and the “Plate 5 (% inhibition)” value was 9.51%.

In the case of `CC(C)(C)OC(=O)NC1[C@H]2CNC[C@@H]12` (stereo partly drawn) [CP-101537], the “Plate 3 (% conversion)” value is reported as 33.25%, the “Plate 5 (% conversion)” value is reported as 36.34% and the “Plate 5 (% inhibition)” value is reported as -0.06%.

With `CN1CCC[C@@H]1Cc1c[nH]c2ccc(Nc3ncccc3[N+](=O)[O-])cc12` [CP-135807] the “% conversion” value was 37.42%, the “Plate 5 (% conversion)” value was 32.28% and the “Plate 5 (% inhibition)” value was 11.85%.

For `CCCCN(CC)c1nc(C)nc2c1c(C)cn2-c1c(C)cc(C)cc1C.Cl` [CP-154526 hydrochloride], the “Plate 3 (% conversion)” value (LOPAC compound at 20uM, plate 3, conversion of substrate peptide) was 39.02%.
